Series [1] is described as follows: Volume of distribution in mouse at 5 mg/kg, iv. It is filed as ADME, organism-based. Further details: dose 5 mg/kg, route intravenous. As to conditions: in vivo.
Series [2] can be described thus: Drug level in plasma of nude mouse bearing human MDA-MB-361 cells at 25 mg/kg, iv after 8 hrs. Further details: dose 25 mg/kg, route intravenous. The following applies: read-out: Drug uptake. Format: ADME, organism-based.
The nature of series [3]: Drug level in tumor of human MDA-MB-361 cells xenografted nude mouse at 25 mg/kg, iv after 8 hrs. It is filed as ADME, organism-based, Neoplasm. Further details: dose 25 mg/kg, route intravenous. The following applies: read-out: Drug uptake.
The nature of series [4]: AUC (0 to infinity) in mouse at 5 mg/kg, iv. Format: ADME, organism-based. Further details: time infinity, dose 5 mg/kg, route intravenous. The following applies: plasma.

Each structure is given as a SMILES string.

A word on the Vd: it is a proportionality between amount in the body and measured concentration, not a real space. Read a high Vd as extensive tissue distribution. Broadly, the AUC(0-inf) is total exposure, with the tail of the curve extrapolated. Lower therefore signals low exposure. Consider `CC(C)N1CCN(C(=O)c2ccc(NC(=O)Nc3ccc(-c4nc(C5CCOCC5)nc(N5C6CCC5COC6)n4)cc3)cc2)CC1`, for which the Vd in series [1] was determined as 1.3 L/kg. The concentration at 8 h came out at 2160 ng/mL in series [2] and 2470 ng/mL in series [3]. This compound showed an AUC(0-inf) in series [4] of 16700 ng·h/mL.

Source of the values: ChEMBL document CHEMBL1156955 (Bioorg Med Chem Lett, 2010).
